pIC50: −log10 of the molar value. Values joined by “and” are separate entries in the source; they are usually repeats but may differ in a detail not shown here. Equal values may be shown once.
Test system: NCI-H1876 complex spheroid growth, % test/control
Test: Anticancer human tumor NCI-H1876 cell line growth inhibition [Asc];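 note: compound exposure lasted 7 days starting three days after seeding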;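 for viability, T/C: 100% = DMSO vehicle control wells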
Details: for viability, T/C: stronger effect = lower value
How it was run: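 Tumor cells were grown as complex spheroids with human endothelial cells (HUVEC) and human mesenchymal stem cells as stroma. Agents were tested alone and in combination, in half-log steps down from the clinical Cmax, or from 10 microM where Cmax was unknown.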

[1] = curve of first compound, second compound 0.00316 µM
[2] = curve of first compound, second compound 0.01 µM
[3] = curve of first compound, second compound 0.0316 µM
[4] = curve of first compound, second compound 0.1 µM
[5] = curve of first compound, second compound 0.316 µM
[6] = curve of first compound, second compound 1 µM

Compound `NC(=O)C(=Cn1cnc(-c2cc(C(F)(F)F)cc(C(F)(F)F)c2)n1)c1cncnc1` + CNC(C)C(=O)NC1CN(S(=O)(=O)c2cccc(S(=O)(=O)N3CCC4CCC(C(=O)NC(c5ccccc5)c5ccccc5)N4C(=O)C(NC(=O)C(C)NC)C3)c2)CCC2CCC(C(=O)NC(c3ccccc3)c3ccccc3)N2C1=O has a pIC50 [1] of under 6.52, a pIC50 [2] of under 6.52 and a pIC50 [3] of under 6.52. For the same compound, the pIC50 [4] was under 6.52, the pIC50 [5] was under 6.52 and the pIC50 [6] was under 6.52. The viability, T/C (second compound 0.00316 µM, first compound 0.000949 µM) was 110%, the viability, T/C (second compound 0.00316 µM, first compound 0.003 µM) was 92.8% and the viability, T/C (second compound 0.00316 µM, first compound 0.00949 µM) was 91.9%. The viability, T/C (second compound 0.00316 µM, first compound 0.03 µM) was 83.8%, the viability, T/C (second compound 0.00316 µM, first compound 0.0949 µM) was 100% and the viability, T/C (second compound 0.00316 µM, first compound 0.3 µM) was 105%. The viability, T/C (second compound 0.01 µM, first compound 0.000949 µM) was 93.4%, the viability, T/C (second compound 0.01 µM, first compound 0.003 µM) was 90.6% and the viability, T/C (second compound 0.01 µM, first compound 0.00949 µM) was 96.6%. It also gave a viability, T/C (second compound 0.01 µM, first compound 0.03 µM) of 92.4%, a viability, T/C (second compound 0.01 µM, first compound 0.0949 µM) of 108% and a viability, T/C (second compound 0.01 µM, first compound 0.3 µM) of 98.2%. For the same compound, the viability, T/C (second compound 0.0316 µM, first compound 0.000949 µM) was 91.4%, the viability, T/C (second compound 0.0316 µM, first compound 0.003 µM) was 102% and the viability, T/C (second compound 0.0316 µM, first compound 0.00949 µM) was 92.4%. The viability, T/C (second compound 0.0316 µM, first compound 0.03 µM) was 92.5%, the viability, T/C (second compound 0.0316 µM, first compound 0.0949 µM) was 104% and the viability, T/C (second compound 0.0316 µM, first compound 0.3 µM) was 94%. It also gave a viability, T/C (second compound 0.1 µM, first compound 0.000949 µM) of 86.2%, a viability, T/C (second compound 0.1 µM, first compound 0.003 µM) of 93.9% and a viability, T/C (second compound 0.1 µM, first compound 0.00949 µM) of 93.5%. It also gave a viability, T/C (second compound 0.1 µM, first compound 0.03 µM) of 104%, a viability, T/C (second compound 0.1 µM, first compound 0.0949 µM) of 102% and a viability, T/C (second compound 0.1 µM, first compound 0.3 µM) of 103%. It also gave a viability, T/C (second compound 0.316 µM, first compound 0.000949 µM) of 95.6%, a viability, T/C (second compound 0.316 µM, first compound 0.003 µM) of 96.9% and a viability, T/C (second compound 0.316 µM, first compound 0.00949 µM) of 88.6%. The viability, T/C (second compound 0.316 µM, first compound 0.03 µM) was 90.1%, the viability, T/C (second compound 0.316 µM, first compound 0.0949 µM) was 100% and the viability, T/C (second compound 0.316 µM, first compound 0.3 µM) was 91.5%. The viability, T/C (second compound 1 µM, first compound 0.000949 µM) was 96.8%, the viability, T/C (second compound 1 µM, first compound 0.003 µM) was 93.6% and the viability, T/C (second compound 1 µM, first compound 0.00949 µM) was 102%. It also gave a viability, T/C (second compound 1 µM, first compound 0.03 µM) of 95.9%, a viability, T/C (second compound 1 µM, first compound 0.0949 µM) of 104% and a viability, T/C (second compound 1 µM, first compound 0.3 µM) of 86.3%.
For `C=CC(=O)N1CCN(c2nc(=O)n(-c3c(C)ccnc3C(C)C)c3nc(-c4c(O)cccc4F)c(F)cc23)C(C)C1` (stereo unspecified), the viability, T/C (compound 0.0316 µM) was 116% and 95.9% and 101%, the viability, T/C (compound 0.1 µM) was 99.4% and 96% and 86.8% and the viability, T/C (compound 0.316 µM) was 106% and 93.2% and 97.1%. For the same compound, the viability, T/C (compound 1 µM) was 101% (2×) and 100%, the viability, T/C (compound 3.16 µM) was 113% and 108% and 106% and the viability, T/C (compound 10 µM) was 110% and 106% and 109%. It also gave a pIC50 (curve of compound) of under 5.00.
`C=CC(=O)N1CCN(c2nc(=O)n(-c3c(C)ccnc3C(C)C)c3nc(-c4c(O)cccc4F)c(F)cc23)C(C)C1` (stereo unspecified) + CNC(C)C(=O)NC1CN(S(=O)(=O)c2cccc(S(=O)(=O)N3CCC4CCC(C(=O)NC(c5ccccc5)c5ccccc5)N4C(=O)C(NC(=O)C(C)NC)C3)c2)CCC2CCC(C(=O)NC(c3ccccc3)c3ccccc3)N2C1=O was tested, and the pIC50 [1] was under 5.00, the pIC50 [2] was under 5.00 and the pIC50 [3] was under 5.00. It also gave a pIC50 [4] of under 5.00, a pIC50 [5] of under 5.00 and a pIC50 [6] of under 5.00. The viability, T/C (second compound 0.00316 µM, first compound 0.0316 µM) was 103%, the viability, T/C (second compound 0.00316 µM, first compound 0.1 µM) was 87.6% and the viability, T/C (second compound 0.00316 µM, first compound 0.316 µM) was 115%. For the same compound, the viability, T/C (second compound 0.00316 µM, first compound 1 µM) was 94.9%, the viability, T/C (second compound 0.00316 µM, first compound 3.16 µM) was 121% and the viability, T/C (second compound 0.00316 µM, first compound 10 µM) was 131%. For the same compound, the viability, T/C (second compound 0.01 µM, first compound 0.0316 µM) was 104%, the viability, T/C (second compound 0.01 µM, first compound 0.1 µM) was 99% and the viability, T/C (second compound 0.01 µM, first compound 0.316 µM) was 99.1%. The viability, T/C (second compound 0.01 µM, first compound 1 µM) was 99.3%, the viability, T/C (second compound 0.01 µM, first compound 3.16 µM) was 107% and the viability, T/C (second compound 0.01 µM, first compound 10 µM) was 111%. It also gave a viability, T/C (second compound 0.0316 µM, first compound 0.0316 µM) of 102%, a viability, T/C (second compound 0.0316 µM, first compound 0.1 µM) of 101% and a viability, T/C (second compound 0.0316 µM, first compound 0.316 µM) of 121%. The viability, T/C (second compound 0.0316 µM, first compound 1 µM) was 102%, the viability, T/C (second compound 0.0316 µM, first compound 3.16 µM) was 116% and the viability, T/C (second compound 0.0316 µM, first compound 10 µM) was 114%. For the same compound, the viability, T/C (second compound 0.1 µM, first compound 0.0316 µM) was 100%, the viability, T/C (second compound 0.1 µM, first compound 0.1 µM) was 106% and the viability, T/C (second compound 0.1 µM, first compound 0.316 µM) was 104%. It also gave a viability, T/C (second compound 0.1 µM, first compound 1 µM) of 106%, a viability, T/C (second compound 0.1 µM, first compound 3.16 µM) of 114% and a viability, T/C (second compound 0.1 µM, first compound 10 µM) of 106%. For the same compound, the viability, T/C (second compound 0.316 µM, first compound 0.0316 µM) was 114%, the viability, T/C (second compound 0.316 µM, first compound 0.1 µM) was 101% and the viability, T/C (second compound 0.316 µM, first compound 0.316 µM) was 100%. For the same compound, the viability, T/C (second compound 0.316 µM, first compound 1 µM) was 101%, the viability, T/C (second compound 0.316 µM, first compound 3.16 µM) was 115% and the viability, T/C (second compound 0.316 µM, first compound 10 µM) was 109%. It also gave a viability, T/C (second compound 1 µM, first compound 0.0316 µM) of 111%, a viability, T/C (second compound 1 µM, first compound 0.1 µM) of 91.9% and a viability, T/C (second compound 1 µM, first compound 0.316 µM) of 118%. The viability, T/C (second compound 1 µM, first compound 1 µM) was 113%, the viability, T/C (second compound 1 µM, first compound 3.16 µM) was 116% and the viability, T/C (second compound 1 µM, first compound 10 µM) was 117%.
